# Data reported in ChEMBL document CHEMBL3885861, “Open TG-GATES”.
# Organism: Rattus norvegicus
# Assay: Open TG-GATES - Regimen: Daily Repeat
# Format: toxicity, organism-based, Sprague-Dawley
# Design: regimen Daily Repeat, gender Male, age 6 weeks
# Conditions: in vivo, po, 10 mg/kg, route gavage, dose level Low; for APTT / Bas / Eos / Fbg / Hb / Ht / Lym / MCH / MCHC / MCV / Mono / Neu / PT / Plat / RBC / Ret / WBC: tissue Blood; for KIDNEY_L / KIDNEY_R / KIDNEY_TOTAL: tissue Kidney; for LIVER: tissue Liver; for A/G / ALP / ALT / AST / BUN / CRE / Ca / Cl / DBIL / GLC / IP / K / LDH / Na / PL / RALB / TBIL / TC / TG / TP / gamma-GTP: tissue Plasma
compound,measurement,setting,value
CCC1(c2ccccc2)C(=O)NC(=O)NC1=O [PHENOBARBITAL],TERMINAL_BW,"72 h, time 3 day",224.1 g
same,APTT,"72 h, time 3 day",15.6 s
same,Bas,"72 h, time 3 day",0%
same,Eos,"72 h, time 3 day",1%
same,Fbg,"72 h, time 3 day",226.8 mg/dL
same,Hb,"72 h, time 3 day",13.3 g/dL
same,Ht,"72 h, time 3 day",39.6%
same,Lym,"72 h, time 3 day",71.6%
same,MCH,"72 h, time 3 day",22 pg
same,MCHC,"72 h, time 3 day",33.6%
same,MCV,"72 h, time 3 day",65.5 fL
same,Mono,"72 h, time 3 day",11.4%
same,Neu,"72 h, time 3 day",16.4%
same,PT,"72 h, time 3 day",11.9 s
same,Plat,"72 h, time 3 day",126.7 x10_4/uL
same,RBC,"72 h, time 3 day",605.2 x10_4/ul
same,Ret,"72 h, time 3 day",7.9%
same,WBC,"72 h, time 3 day",126 x10_2/uL
same,KIDNEY_L,"72 h, time 3 day",1 g
same,KIDNEY_R,"72 h, time 3 day",1 g
same,KIDNEY_TOTAL,"72 h, time 3 day",2 g
same,LIVER,"72 h, time 3 day",12 g
same,A/G,"72 h, time 3 day",1.5
same,ALP,"72 h, time 3 day",757.2 IU/L
same,ALT,"72 h, time 3 day",34.6 IU/L
same,AST,"72 h, time 3 day",61.6 IU/L
same,BUN,"72 h, time 3 day",15.2 mg/dL
same,CRE,"72 h, time 3 day",0.5 mg/dL
same,Ca,"72 h, time 3 day",10.6 mg/dL
same,Cl,"72 h, time 3 day",106.6 meq/L
same,DBIL,"72 h, time 3 day",0.018 mg/dL
same,GLC,"72 h, time 3 day",197.2 mg/dL
same,IP,"72 h, time 3 day",8.3 mg/dL
same,K,"72 h, time 3 day",4.8 meq/L
same,LDH,"72 h, time 3 day",106.8 IU/L
same,Na,"72 h, time 3 day",139 meq/L
same,PL,"72 h, time 3 day",147.8 mg/dL
same,RALB,"72 h, time 3 day",3.5 g/dL
same,TBIL,"72 h, time 3 day",0.3 mg/dL
same,TC,"72 h, time 3 day",83.4 mg/dL
same,TG,"72 h, time 3 day",104.8 mg/dL
same,TP,"72 h, time 3 day",5.8 g/dL
same,gamma-GTP,"72 h, time 3 day",1.6 IU/L
same,TERMINAL_BW,"[…], time 7 day",253.6 g
same,TERMINAL_BW,"[…], time 14 day",311.1 g
same,TERMINAL_BW,"[…], time 28 day",391.1 g
same,APTT,"[…], time 7 day",16.3 s
same,Bas,"[…], time 7 day",0%
same,Eos,"[…], time 7 day",1%
same,Fbg,"[…], time 7 day",236 mg/dL
same,Hb,"[…], time 7 day",13.8 g/dL
same,Ht,"[…], time 7 day",41.2%
same,Lym,"[…], time 7 day",80.6%
same,MCH,"[…], time 7 day",21.8 pg
same,MCHC,"[…], time 7 day",33.4%
same,MCV,"[…], time 7 day",65.2 fL
same,Mono,"[…], time 7 day",3%
same,Neu,"[…], time 7 day",15.4%
same,PT,"[…], time 7 day",11.6 s
same,Plat,"[…], time 7 day",113.9 x10_4/uL
same,RBC,"[…], time 7 day",632.6 x10_4/ul
same,Ret,"[…], time 7 day",6.6%
same,WBC,"[…], time 7 day",95.6 x10_2/uL
same,APTT,"[…], time 14 day",16.6 s
same,Bas,"[…], time 14 day",0%
same,Eos,"[…], time 14 day",0.2%
same,Fbg,"[…], time 14 day",234.6 mg/dL
same,Hb,"[…], time 14 day",15 g/dL
same,Ht,"[…], time 14 day",45.1%
same,Lym,"[…], time 14 day",84.6%
same,MCH,"[…], time 14 day",20.6 pg
same,MCHC,"[…], time 14 day",33.3%
same,MCV,"[…], time 14 day",61.7 fL
same,Mono,"[…], time 14 day",5.8%
same,Neu,"[…], time 14 day",9.6%
same,PT,"[…], time 14 day",11.4 s
same,Plat,"[…], time 14 day",114.1 x10_4/uL
same,RBC,"[…], time 14 day",731.2 x10_4/ul
same,Ret,"[…], time 14 day",5%
same,WBC,"[…], time 14 day",141.4 x10_2/uL
same,APTT,"[…], time 28 day",17.6 s
same,Bas,"[…], time 28 day",0%
same,Eos,"[…], time 28 day",1%
same,Fbg,"[…], time 28 day",226.6 mg/dL
same,Hb,"[…], time 28 day",15 g/dL
same,Ht,"[…], time 28 day",43.9%
same,Lym,"[…], time 28 day",86.6%
same,MCH,"[…], time 28 day",20.1 pg
same,MCHC,"[…], time 28 day",34.1%
same,MCV,"[…], time 28 day",58.9 fL
same,Mono,"[…], time 28 day",3.8%
same,Neu,"[…], time 28 day",8.8%
same,PT,"[…], time 28 day",12.1 s
same,Plat,"[…], time 28 day",97.5 x10_4/uL
same,RBC,"[…], time 28 day",746 x10_4/ul
same,Ret,"[…], time 28 day",2.9%
same,WBC,"[…], time 28 day",114.8 x10_2/uL
same,KIDNEY_L,"[…], time 7 day",1.1 g
same,KIDNEY_R,"[…], time 7 day",1.1 g
same,KIDNEY_TOTAL,"[…], time 7 day",2.1 g
same,KIDNEY_L,"[…], time 14 day",1.2 g
same,KIDNEY_R,"[…], time 14 day",1.2 g
same,KIDNEY_TOTAL,"[…], time 14 day",2.3 g
same,KIDNEY_L,"[…], time 28 day",1.4 g
same,KIDNEY_R,"[…], time 28 day",1.3 g
same,KIDNEY_TOTAL,"[…], time 28 day",2.7 g
same,LIVER,"[…], time 7 day",13.7 g
same,LIVER,"[…], time 14 day",15.6 g
same,LIVER,"[…], time 28 day",16.8 g
same,A/G,"[…], time 7 day",1.5
same,ALP,"[…], time 7 day",686.4 IU/L
same,ALT,"[…], time 7 day",28 IU/L
same,AST,"[…], time 7 day",57 IU/L
same,BUN,"[…], time 7 day",18.4 mg/dL
same,CRE,"[…], time 7 day",0.6 mg/dL
same,Ca,"[…], time 7 day",10.9 mg/dL
same,Cl,"[…], time 7 day",105.2 meq/L
same,DBIL,"[…], time 7 day",0.034 mg/dL
same,GLC,"[…], time 7 day",210 mg/dL
same,IP,"[…], time 7 day",8.5 mg/dL
same,K,"[…], time 7 day",4.7 meq/L
same,LDH,"[…], time 7 day",86.8 IU/L
same,Na,"[…], time 7 day",139.6 meq/L
same,PL,"[…], time 7 day",161.2 mg/dL
same,RALB,"[…], time 7 day",3.6 g/dL
same,TBIL,"[…], time 7 day",0.4 mg/dL
same,TC,"[…], time 7 day",82.4 mg/dL
same,TG,"[…], time 7 day",129.2 mg/dL
same,TP,"[…], time 7 day",6 g/dL
same,gamma-GTP,"[…], time 7 day",1.2 IU/L
same,A/G,"[…], time 14 day",1.6
same,ALP,"[…], time 14 day",858.8 IU/L
same,ALT,"[…], time 14 day",33.8 IU/L
same,AST,"[…], time 14 day",63.2 IU/L
same,BUN,"[…], time 14 day",17.8 mg/dL
same,CRE,"[…], time 14 day",0.6 mg/dL
same,Ca,"[…], time 14 day",11.3 mg/dL
same,Cl,"[…], time 14 day",106 meq/L
same,DBIL,"[…], time 14 day",0.004 mg/dL
same,GLC,"[…], time 14 day",193.8 mg/dL
same,IP,"[…], time 14 day",9.1 mg/dL
same,K,"[…], time 14 day",4.7 meq/L
same,LDH,"[…], time 14 day",100 IU/L
same,Na,"[…], time 14 day",141.6 meq/L
same,PL,"[…], time 14 day",162.8 mg/dL
same,RALB,"[…], time 14 day",4 g/dL
same,TBIL,"[…], time 14 day",0.2 mg/dL
same,TC,"[…], time 14 day",83.8 mg/dL
same,TG,"[…], time 14 day",127.6 mg/dL
same,TP,"[…], time 14 day",6.6 g/dL
same,gamma-GTP,"[…], time 14 day",1 IU/L
same,A/G,"[…], time 28 day",1.6
same,ALP,"[…], time 28 day",707.4 IU/L
same,ALT,"[…], time 28 day",29.6 IU/L
same,AST,"[…], time 28 day",56.2 IU/L
same,BUN,"[…], time 28 day",21.6 mg/dL
same,CRE,"[…], time 28 day",0.3 mg/dL
same,Ca,"[…], time 28 day",10.3 mg/dL
same,Cl,"[…], time 28 day",108.4 meq/L
same,DBIL,"[…], time 28 day",0.026 mg/dL
same,GLC,"[…], time 28 day",195.8 mg/dL
same,IP,"[…], time 28 day",7.4 mg/dL
same,K,"[…], time 28 day",5 meq/L
same,LDH,"[…], time 28 day",84.2 IU/L
same,Na,"[…], time 28 day",139.8 meq/L
same,PL,"[…], time 28 day",148 mg/dL
same,RALB,"[…], time 28 day",3.9 g/dL
same,TBIL,"[…], time 28 day",0.4 mg/dL
same,TC,"[…], time 28 day",69.6 mg/dL
same,TG,"[…], time 28 day",164.4 mg/dL
same,TP,"[…], time 28 day",6.3 g/dL
same,gamma-GTP,"[…], time 28 day",1.4 IU/L
